Experimental data: patent US9586896B2, “Nitroxyl donors with improved therapeutic index” (Cardioxyl Pharmaceuticals, Inc., priority 2013, dated 2017)

Key:
[1] = tested on: heart failure canines (tachycardia-pacing model); experiment: Hemodynamic efficacy in heart failure canines (tachycardia-pacing model); type: in vivo, beagle dogs; conditions: for hemodynamic activity relative to CXL-1020: both normal and failing canine models; for hemodynamic effects produced: normal and failing canine models, FIGS. 1-2
Method: The cardiovascular effects of nitroxyl donors were examined by means of pressure-volume (PV) curve (loops) analysis in conscious, sling-restrained beagle dogs. Animals were allowed free access to drinking water and a commercial canine diet under standard laboratory conditions. Fluorescent lighting was provided via an automatic timer for approximately 12 hours per day. On occasion, the dark cycle was interrupted intermittently due to study-related activities. Temperature and humidity were monitored and recorded daily and maintained to the maximum extent possible between 64° F. and 84° F. and 30% to 70%, respectively. The dogs were acclimated for a period of at least 1 week prior to surgery. Following surgery and recovery the animals were acclimated to sling restraint for a period up to 4.5 hours. Animals were fasted overnight prior to surgery.
Once a stable (surgical) plane of anesthesia had been established, a left-thoracotomy was performed (under strict aseptic conditions) and each animal was chronically instrumented with sono-micrometry crystals providing left-ventricular (LV) dimensions/volume. Additionally, a fluid-filled catheter and a solid-state monometer were placed in the left ventricle for pressure monitoring. A fluid-filled catheter was placed in the right ventricle (RV) and the aorta (Ao) for pressure monitoring/test article administration. […] The catheters/wires were aseptically tunneled and externalized between the scapulae. Over the course of the study, fluid-filled catheters were regularly (at least once weekly) flushed with a locking-solution in order to prevent both clotting and bacterial growth (2-3 mL of Taurolidine-Citrate solution, TCS-04; Access Technologies).
Following the cardiovascular instrumentation, the right jugular vein was carefully exposed and cannulated with a bipolar pacing lead/catheter (CAPSUREFIX® Novus; Medtronic). Under fluoroscopic guidance, this pacing lead was advanced normograde into the right ventricle and actively affixed (screwed in) to the apical endocardium. The proximal end of the lead was secured to the pacing device (Kappa 900; Medtronic). Subsequently, the pacemaker was placed/secured in a subcutaneous pocket in the neck.
Following a recovery from surgery and/or sufficient washout period from dosing with a nitroxyl donor, animals were subjected to a 3-week overdrive pacing (210 ppm) protocol aimed to trigger left-ventricular dysfunction/remodeling consistent with the heart failure syndrome. In short, via the implanted pacemaker/right-ventricular lead, the ventricle(s) was asynchronously and continuously paced at 210 beats per minute (bpm). Left-ventricular remodeling (and heart failure induction) were confirmed by both echocardiographic (e.g., ejection fraction (EF)) decrease from about 60% to a target of about 35%, left ventricular (LV) dilatation) and neuro-humoral (e.g., N-terminal pro-brain natriuretic peptide (NT proBNP) elevation to greater than 1800 pM/L from a baseline of about 300 pM/L) changes after approximately 3 weeks of pacing. Echocardiographs and blood samples were collected in the absence of pacing (for at least 15 min).
The animals (normal or heart failure) were studied during treatment with both vehicle (control) and a nitroxyl donor (either CXL-1020, a compound of formula (1) or a compound of formula (2)). At each dosing period, conscious sling-restrained animals were continuously monitored for up to two to three hours. Following hemodynamic stabilization, infusion of the vehicle was started. […] Infusion of the vehicle was continued and after 30 min another (baseline) set of hemodynamic data was collected. Following collection of baseline hemodynamic data, infusion of the nitroxyl donor compound being tested was initiated and derived hemodynamic/functional parameters were obtained/performed at up to four (4) time points selected from the following: at 30, 60, 90, 120, and 180 minutes after the onset of vehicle/test compound infusion. […]

[2] = In vitro stability (half-life) in PBS pH 7.4; type: physicochemical; conditions: pH 7.4, aerated PBS pH 7.4, 37° C., read-out: T1/2 (minutes) PBS
Method: Compound (1), compound (2), and CXL-1020 were tested for their stability in plasma. The assay system comprised (i) PBS, or plasma from rat, dog or human (at least 3 donors, male, pooled) at pH 7.4, and (ii) for tests conducted in plasma, an anticoagulant (sodium heparin or sodium citrate). Each test compound (5 μM) was incubated in PBS or plasma at 37° C. on a THERMOMIXER® with shaking Three samples (n=3) were taken at each of seven sampling time points: 0, 10, 30, 60, 90, 180 and 360 minutes. The samples were immediately combined with 3 volumes (i.e., 3 times the volume of PBS or plasma) of acetonitrile containing 1% formic acid and an internal standard to terminate the reaction. AB SCIEX API 3000 LC-MS/MS analysis of the test compounds was performed without a standard curve. Half-lives (T1/2) of the test compounds were determined from graphs of the percent remaining values using the peak area response ratio.

dogs = experiment: Microscopic pathology of the vasculature, canine implanted central catheter 72 hour model; type: in vivo, beagle dogs; conditions: edema, vascular/perivascular inflammation, hemorrhage, molar equivalent dose rates to CXL-1020
Method: Confirmation was obtained through evaluating the nitroxyl donors through detailed histopathology of the vasculature at the site of insertion of into the femoral vein (15 cm distal to the catheter tip), along the catheter track to the catheter tip, and past the tip downstream 20 cm.
A composite lab score was calculated from the sum of these findings scores. In FIG. 5, the cumulative histology composite lab score ranges from 0-2 (low severity) to 11-12 (high severity). […] The NOAEL values determined based on these microscopic pathology markers for a series of nitroxyl donors, expressed in molar equivalent dose rates (μg/kg/min) to CXL-1020, are provided in Table 8.

[3] = heart failure canines, i.v. infusion, dose rate 75 (μmol/kg/min [sic])

SMILES: CS(=O)(=O)c1ccccc1S(=O)(=O)NO [CXL-1020, N-hydroxy-2-methanesulfonylbenzene-1-sulfonamide]
- HR (% Change from Baseline) ([1]; heart failure canines, i.v. infusion, dose rate 100 (μmol/kg/min [sic])): −0.23 ± 2.25%
- half-life at 5 μM [2]: 2 min
- NOAEL (μg/kg/min), microscopic pathology markers (dogs): <3 μg/kg/min

SMILES: Cc1ccc(S(=O)(=O)NO)o1 [Compound (1), N-Hydroxy-5-methylfuran-2-sulfonamide]
- hemodynamic activity relative to CXL-1020 [1]: comparable hemodynamic activity to CXL-1020
- EDV (% Change from Baseline) [1, 3]: −9 ± 2%
- ESP (% Change from Baseline) [1, 3]: −17 ± 1%
- ESPVR (% Change from Baseline) [1, 3]: 29 ± 1%
- HR (% Change from Baseline) [1, 3]: −6 ± 2%
- PRSW (% Change from Baseline) [1, 3]: 22 ± 1%
- SW (% Change from Baseline) [1, 3]: −9 ± 2%
- Tau (% Change from Baseline) [1, 3]: −16 ± 4%
- hemodynamic effects produced [1]: significant enhancement of inotropy and lusitropy, and modest reductions in blood pressure
- half-life at 5 μM [2]: ~68 min
- NOAEL (μg/kg/min), microscopic pathology markers (dogs): ≧180 μg/kg/min

SMILES: CS(=O)(=O)c1cccc(S(=O)(=O)NO)c1 [(2), N-Hydroxy-3-methanesulfonylbenzene-1-sulfonamide]
- hemodynamic activity relative to CXL-1020 [1]: comparable hemodynamic activity to CXL-1020
- hemodynamic effects produced [1]: significant enhancement of inotropy and lusitropy, and modest reductions in blood pressure
- half-life at 5 μM [2]: ~50 min
- NOAEL (μg/kg/min), microscopic pathology markers (dogs): ≧180 μg/kg/min
